Measured values as given in patent publication US10456407B2, “Combination therapy for treating cancer” (Epizyme, Inc., priority 2015, dated 2019).

Columns and labels:
[1] = system: RP-R-02LM ccRCC PDX; type: in vivo; details: tumors at primary site
Method: Mice bearing human ccRCC patient derived xenograft (PDXs); RP-R-01, RP-R-02 and RP-R-02LM (a metastatic ccRCC model established from RP-R-02) were implanted into SCID mice. […] Tumors volumes and body weight were assessed once per week. Tumor tissues and lungs were collected for immunohistochemistry analysis. All assessments and quantification were done blindly.

[2] = system: WSU-DLCL2 cells; details: for growth inhibition by the drug by itself: WSU-DLCL2, single agent
Method: (§1) After 3 days of co-treatment, cell viability was measured via ATP content using CellTiter-Glo®
(§2) Synergy quantification is performed using the Chou-Talalay method^3 for drug combination. The Combination Index (CI) equation offers a quantitative definition for additivity (CI=1), synergism (CI<1), and antagonism (CI>1). This equation used Fa values from a constant ratio of drug combination to determine CI values. […] These Fa-CI plots are generated using the Calcusyn software.
(§3) After 3 days of co-treatment (5 days for Toledo assays), cell viability was measured via ATP content using CellTiter-Glo® (Promega) and luminescence was detected using a SpectraMax M5 microplate reader (Molecular Devices).
as §2, with “Chou-Talalay method” for “Chou-Talalay method^3”, “drug combination (Ref 1).” for “drug combination.”, “used fractional effect (Fa)” for “used Fa”, “Calcusyn for Windows software (Ref2).” for “Calcusyn software.”
(§4) Dose responses were plotted using Graphpad Prism and either 50% or 60% inhibitory concentrations were interpolated from the dose response curves.

[3] = system: SU-DHL10 cells; details: for growth inhibition by the drug by itself: SU-DHL10, single agent
Method: as §1, §2, §3
as §2, with “Chou-Talalay method” for “Chou-Talalay method^3”, “drug combination (Ref 1).” for “drug combination.”, “used fractional effect (Fa)” for “used Fa”, “Calcusyn for Windows software (Ref2).” for “Calcusyn software.”
as §4

[4] = system: Toledo cells; details: Toledo (WT EZH2 ABC); drug combined with Compound 44
Method: as §1, §2, §3
as §2, with “Chou-Talalay method” for “Chou-Talalay method^3”, “drug combination (Ref 1).” for “drug combination.”, “used fractional effect (Fa)” for “used Fa”, “Calcusyn for Windows software (Ref2).” for “Calcusyn software.”
as §4

[5] = system: DOHH2 cells; details: DOHH2 (WT EZH2 GCB); drug combined with Compound 44
Method: as §1, §2, §3
as §2, with “Chou-Talalay method” for “Chou-Talalay method^3”, “drug combination (Ref 1).” for “drug combination.”, “used fractional effect (Fa)” for “used Fa”, “Calcusyn for Windows software (Ref2).” for “Calcusyn software.”
as §4

[6] = system: EZH2 mutant lymphoma cell line; assay: Combination assay with targeted therapies (pre-treatment model A, Calcusyn), EZH2 mutant lymphoma cell line; type: cell-based; details: pretreatment model A, combined with Compound 44
Excerpt: Statistically significant CI values for synergy are for example those CI value<1 with the confidence interval lines also below 1.
CI values<1 with confidence interval lines also below 1 indicate statistically significant synergism.

[7] = due to its cardiotoxicity; cited from earlier work
[8] = WSU-DLCL2 (EZH2 mutant GCB), drug combined with Compound 44
[9] = SU-DHL 10 (EZH2 mutant GCB), drug combined with Compound 44

SMILES | Summary of Combinations with Compound 44 (combination effect) [2, 8] | growth inhibition by the drug by itself [2] | Summary of Combinations with Compound 44 (combination effect) [3, 9] | growth inhibition by the drug by itself [3] | Summary of Combinations with Compound 44 (combination effect) [4] | Summary of Combinations with Compound 44 (combination effect) [5] | synergy in combination with Compound 44 [6] | also measured
CCN(c1cc(C#CCN2CCOCC2)cc(C(=O)NCc2c(C)cc(C)[nH]c2=O)c1C)C1CCC(N(C)CCOC)CC1 (centres unmarked) [Compound B] |  |  |  |  |  |  |  | cell proliferation (Ki67 stain) [1]: Decreased cell proliferation
CC[C@]1(O)C[C@H]2CN(CCc3c([nH]c4ccccc34)[C@@](C(=O)OC)(c3cc4c(cc3OC)N(C=O)[C@H]3[C@@](O)(C(=O)OC)[C@H](OC(C)=O)[C@]5(CC)C=CCN6CC[C@]43[C@@H]65)C2)C1 [Vincristine, vincristine] | additive (Cl = 1 additive) | concentration-dependent growth inhibition | additive (Cl = 1 additive) | concentration-dependent growth inhibition | no effect | no effect |  | 
CO[C@H]1C[C@@H]2CC[C@@H](C)[C@@](O)(O2)C(=O)C(=O)N2CCCC[C@H]2C(=O)O[C@H]([C@H](C)C[C@@H]2CC[C@@H](OCCO)[C@H](OC)C2)CC(=O)[C@H](C)/C=C(\C)[C@@H](O)[C@@H](OC)C(=O)[C@H](C)C[C@H](C)/C=C/C=C/C=C/1C [everolimus] |  |  |  |  |  |  | Very strong synergy | 
CC1(C)CCC(c2ccc(Cl)cc2)=C(CN2CCN(c3ccc(C(=O)NS(=O)(=O)c4ccc(N[C@H](CCN5CCOCC5)CSc5ccccc5)c(S(=O)(=O)C(F)(F)F)c4)cc3)CC2)C1 [Navitoclax] |  |  |  |  |  |  | Very strong synergy | 
C[C@@H]1C[C@H]2[C@@H]3CCC4=CC(=O)C=C[C@]4(C)[C@@]3(F)[C@@H](O)C[C@]2(C)[C@@]1(O)C(=O)CO [Dexamethasone, dexamethasone] |  |  |  |  | no effect |  |  | Summary of Combinations with Compound 44: potency enhanced [2, 8]: 15x; Summary of Combinations with Compound 44: potency enhanced [3, 9]: potency enhanced 5x; Summary of Combinations with Compound 44: potency enhanced [5]: potency enhanced 4x
COc1cccc2c1C(=O)c1c(O)c3c(c(O)c1C2=O)C[C@@](O)(C(=O)CO)C[C@@H]3O[C@H]1C[C@H](N)[C@H](O)[C@H](C)O1 [Doxurubicin, doxorubicin] | synergy (Cl < 1 synergy) | concentration-dependent growth inhibition | additive (Cl = 1 additive) | concentration-dependent growth inhibition | no effect | no effect |  | lifetime cumulative dosing limit [7]: < 550 mg/m^2
